In patent publication EP2106791A1, “Glutamine or glutamine-containing dipeptide in a specific dosage for the treatment of inflammation” (Biotempt B.V., priority 2008, dated 2009):
Residues, ends and D or L forms follow the SMILES beside them.

Columns and labels:
[1] = system: mouse renal ischemia reperfusion; test: Mice renal failure test (mouse renal ischemia reperfusion), mortality; type: in vivo; details: score = animals died - animals in group
Protocol: Dipeptides are tested and compared with PBS (control) in a double blind animal study for a dipeptide's relative ability to aid recovery in a mouse renal ischemia reperfusion or mouse renal failure test. Under inhalation anesthesia, the left kidney with its artery and vein is isolated and occluded for 25 minutes using a microvascular clamp. During surgery, animals are placed on a heating path to maintain body temperature at 37°C. Five minutes before placing the clamp, and 5 minutes before releasing the clamp, dipeptide, dissolved in 0.1 mL of sterile saline, is administered intravenously. After reperfusion of the left kidney the right kidney is removed. Kidney function is assessed by measuring blood urea nitrogen before clamping, and at 2, 24, and 72 hours after reperfusion, by determining mRNA levels for cytokine expression, and such.
In short, in this test, the mice are anesthetized, and one kidney from each mouse is removed. The other kidney is tied off for 25 minutes, and the ischemia levels in the kidney are allowed to increase. Both before and/or after tying off, GLN-containing dipeptide is administered to 8 to 10 different mice per group (dosages vary per group from for example 0.7, 3, 7, 30 and 70 mg dipeptide / kg body mass intravenously). The mortality of the mice is determined for each oligopeptide as well as for example the BUN or creatinine concentration at two hours, 24 hours and 72 hours. Two dipeptides AQ and LQ are for example tested in a dose-response manner in the mice renal failure test. Dipeptides are tested at dosages of 0.7, 3, 7, 30 and 70 mg/kg body weight given intravenously.

Hemorrhagic shock = test: Rat hemorrhagic shock study, recovery of mean arterial pressure; type: in vivo, Rats; details: AQ intravenously 0.7 to 70 mg/kg with Ringer's lactate during resuscitation; compared with the LR group
Protocol: (§1) Methods: Rats are randomly assigned to groups. Under isoflurane anesthesia, the femoral artery and vein are cannulated. Hemorrhagic shock is induced by withdrawing blood through the arterial cannula until the mean arterial pressure (MAP) is 25-30 mm Hg and maintained at the level for 30 minutes with further withdrawals. Resuscitation is carried out by giving 21 mL/kg Ringer's lactate (LR) with or without the administration of AQ (intravenously at ranges from 0.7 to 70 mg/kg) and returning the shed blood. Controls are normal (anesthesia only), sham (surgical preparation), and shock (preparation and shock). Rats (n = 80, 10 per group) are killed 30 minutes after completion of resuscitation. Liver samples are collected, and total RNA is isolated for reverse transcription-polymerase chain reaction analysis of mRNA (TNF-a). […] Increased expression of liver mRNA for TNF-alpha is seen after hemorrhagic shock and resuscitation.

TNF-alpha = test: Rat hemorrhagic shock study, liver mRNA by reverse transcription-polymerase chain reaction; type: in vivo, Rats; details: AQ intravenously 0.7 to 70 mg/kg during resuscitation; liver samples 30 minutes after completion of resuscitation
Protocol: as §1

Row | Compound | Mortality in mice renal failure experiment 24h ([1]; 0.7 mg/kg intravenously) | Mortality in mice renal failure experiment 72h ([1]; 0.7 mg/kg intravenously) | Mortality in mice renal failure experiment 24h ([1]; 3.0 mg/kg intravenously) | Mortality in mice renal failure experiment 72h ([1]; 3.0 mg/kg intravenously) | Mortality in mice renal failure experiment 24h ([1]; 7.0 mg/kg intravenously) | Mortality in mice renal failure experiment 72h ([1]; 7.0 mg/kg intravenously) | Mortality in mice renal failure experiment 24h ([1]; 30.0 mg/kg intravenously) | Mortality in mice renal failure experiment 72h ([1]; 30.0 mg/kg intravenously) | Mortality in mice renal failure experiment 24h ([1]; 70.0 mg/kg intravenously) | Mortality in mice renal failure experiment 72h ([1]; 70.0 mg/kg intravenously) | MAP recovery (Hemorrhagic shock) | expression of liver mRNA for TNF-alpha (TNF-alpha)
1 | CC(C)C[C@H](N)C(=O)N[C@@H](CCC(N)=O)C(=O)O [LQ, leucyl-glutamine] (H-Leu-Gln-OH) | 0-9 | 2-9 | 0-10 | 1-9 | 1-10 | 1-10 | 0-10 | 0-9 | 0-8 | 3-9 |  | 
2 | C[C@H](N)C(=O)N[C@@H](CCC(N)=O)C(=O)O [AQ, alanyl-glutamine] (H-Ala-Gln-OH) | 0-9 | 2-9 | 0-10 | 1-9 | 0-10 | 0-9 | 0-8 | 1-10 | 0-9 | 1-9 | recovers more quickly | reduces mRNA expression for TNF-alpha
